# Values of other authors in patent publication EP3142678B1, “USE OF CRANBERRY PROANTHOCYANIDINS WITH HERBAL COMPONENTS FOR TREATING AND PREVENTING URINARY TRACT INFECTIONS” (Specchiasol S.r.l., priority 2014, dated 2015).
# Where two headings read alike, the source gives them in different places.
# Tested on: slime-producing uropathogenic Escherichia coli strains
# Conditions: for reduced biofilms: fosfomycin 2000 mg/l; for percentage of residual slime relative to the control: range over four strains
SMILES,reduced biofilms (initial (5 h) biofilms),reduced biofilms (mature (48 h) biofilms),percentage of residual slime relative to the control (0.007 mg/ml of NAC),percentage of residual slime relative to the control (8 mg/ml of NAC),"remaining exopolysaccharide matrix, of the amount found with the untreated control (pre-formed biofilms, NAC at the highest concentrations used)"
C[C@@H]1O[C@@H]1P(=O)(O)O [fosfomycin],40-57%,41-49%,–,–,–
"CC(=O)N[C@@H](CS)C(=O)O [NAC, N-Acetylcysteine]",–,–,62.5-100%,26.2-64.1%,25-68%
